Common to all, as to assay: DTP human tumour cell line panel, 48 h
Assay [1] concerns UACC-257.
Assay [2] has as its system MCF7.
The subject of assay [3] is SK-MEL-2.
The subject of assay [4] is BT-549.
Assay [5] relates to HCT-15.
In assay [6] the test system is CAKI-1.
The test system of assay [7] is HCT-116.
For assay [8], the system named is RXF 393.
The subject of assay [9] is KM12.
Assay [10] has as its system SK-MEL-5.
The subject of assay [11] is COLO 205.
For assay [12], the system named is SW-620.
The test system of assay [13] is T47D.
The test system of assay [14] is PC-3.
Assay [15] relates to SR.
Assay [16] deals with IGROV-1.
Assay [17] deals with UO-31.
Assay [18] concerns CCRF-CEM.
Assay [19] has as its system Hs-578T.
Assay [20] deals with HL-60.

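Assay format: 96-well plates, 48-hour exposure. GI50: concentration for 50% inhibition of growth.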 The source made the active and inactive calls. Rule as the data show it: active = GI50 up to about 1.1 µM and inactive = higher.

By GI50 is commonly meant the concentration at which growth is held to half of that of the control.

As for `C[C@]1(O)CC(=O)c2c(c(-c3ccc4cc5c(c(O)c4c3O)C(=O)C[C@@](C)(O)C5)c3cccc(O)c3c2O)C1`, the GI50 is 7.36 µM (inactive) in [1]; 5.53 µM (inactive) in [2]; 2.52 µM (inactive) in assay [3]; 5.89 µM (inactive) in assay [4]; 3.76 µM in [5]; 5.14 µM (inactive) in [6]. The GI50 is 3.48 µM (inactive) in [7]; 4.58 µM (inactive) in assay [8]; 3.31 µM (inactive) in [9]; 3.66 µM (inactive) in [10]; 1.79 µM (inactive) in assay [11]; 6 µM (inactive) in assay [12]. Moreover, the GI50 in [13] is 2.86 µM (inactive); in assay [14], 3.08 µM (inactive); in [15] it was 5.56 µM (inactive); in assay [16], 4.67 µM (inactive); in assay [17], 4.16 µM (inactive); in assay [18], 6.71 µM (inactive). Besides, the GI50 in assay [19] was 4.06 µM (inactive).

As to `Cc1c/c(=N\c2ccc3c(c2)c(N)cc(C)[n+]3C)nc(N)n1C`, the GI50 in assay [1] is > 100 µM (inactive); in assay [2], > 100 µM (inactive); in assay [3] it was > 100 µM (inactive); in assay [4] it was > 100 µM (inactive); in assay [5], above 100 µM; in assay [6], > 100 µM (inactive). For the same molecule, the GI50 in assay [7], in [8], in assay [9], in [10], in assay [11] and in assay [12] was > 100 µM (inactive) in each case. Further, the GI50 in [13], in assay [14], in assay [15], in [16], in assay [17] and in [18] was > 100 µM (inactive) each time. For the same molecule, the GI50 in [19] was > 100 µM (inactive).

For `CN(C)CCNC(=O)c1nc([N+](=O)[O-])cn1C`, the GI50 in [1] is > 100 µM (inactive); in assay [20] it was > 100 µM (inactive); in [2], > 100 µM (inactive); in assay [3], > 100 µM (inactive); in assay [4] it was > 100 µM (inactive); in assay [5] it was above 100 µM. Moreover, the GI50 in assay [6], in [7], in assay [9], in assay [10], in [11] and in assay [12] was > 100 µM (inactive) in each case. The GI50 in assay [13], in [14], in [15], in assay [16], in assay [17] and in [18] was > 100 µM (inactive) each time. Further, in assay [19], the GI50 is > 100 µM (inactive).

Regarding `C[C@@H](NC(C#N)c1ccco1)c1ccccc1` (some centres undefined), the GI50 in assay [1] was > 100 µM (inactive); in assay [20], > 100 µM (inactive); in assay [2], > 100 µM (inactive); in [4] it was > 100 µM (inactive); in assay [5], above 100 µM; in assay [7], > 100 µM (inactive). Also, the GI50 in assay [8], in assay [9], in assay [10], in [12], in [13] and in [14] was > 100 µM (inactive) in each case. Besides, the GI50 in [15], in [16], in [17], in assay [18] and in [19] was > 100 µM (inactive) each time.

The record behind these values is ChEMBL document CHEMBL1201862, “PubChem BioAssay data set” (2004).
